Experimental data taken from article PMC8154581, “Discovery of Novel Thiophene-arylamide Derivatives as DprE1 Inhibitors with Potent Antimycobacterial Activities” (Journal of Medicinal Chemistry, 2021).
Converted amounts (≈) assume the structure as drawn. “And” between values parts separate entries of the source, which are not always exact repeats. Identical values can stand only once. Like-named read-outs stand apart in the source and are kept apart here.

Assays:
[1] = test system: M. tuberculosis; parameters: method as in PMID 19299584, PMID 24500695; conditions: antimycobacterial activity; cited from earlier work
[2] = test system: M. tuberculosis H37Rv; assay: MIC against replicating M. tuberculosis H37Rv, microplate Alamar blue assay (MABA); type: cell-based; conditions: for MIC: Mycobacterium tuberculosis, H37RV
[3] = test system: Vero cells; assay: Cytotoxicity assay in Vero cells (MTT); type: cell-based; conditions: for IC50: Chlorocebus sabaeus, Vero cells, 48 h, read-out: IC50 (Vero)
[4] = test system: M. tuberculosis (H37Rv) in infected mouse J774A.1 macrophages; type: cell-based
[5] = target: Mt-DprE1 (Mycobacterium tuberculosis, UniProt P9WJF1); type: biochemical, M. tuberculosis
Mt-DprE1, sequence (P9WJF1 whole entry, looked up): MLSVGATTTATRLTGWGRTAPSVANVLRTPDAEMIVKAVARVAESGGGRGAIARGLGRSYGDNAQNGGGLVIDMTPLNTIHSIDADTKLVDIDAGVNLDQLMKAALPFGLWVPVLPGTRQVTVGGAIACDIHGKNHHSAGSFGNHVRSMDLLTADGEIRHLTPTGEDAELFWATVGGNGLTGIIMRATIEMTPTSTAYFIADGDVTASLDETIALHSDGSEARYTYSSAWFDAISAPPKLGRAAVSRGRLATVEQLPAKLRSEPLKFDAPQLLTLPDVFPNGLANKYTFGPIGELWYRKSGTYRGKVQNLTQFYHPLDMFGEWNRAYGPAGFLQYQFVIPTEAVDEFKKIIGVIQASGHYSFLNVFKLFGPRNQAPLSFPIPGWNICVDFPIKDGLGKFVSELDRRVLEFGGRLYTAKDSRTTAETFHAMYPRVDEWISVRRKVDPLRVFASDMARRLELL

[6] = Hepatocyte stability assay, mouse; conditions: male, mouse hepatocytes
[7] = Hepatocyte stability assay, human; conditions: human hepatocytes
[8] = Pharmacokinetic studies in Balb/c mice; conditions: male, Balb/c, mouse, in vivo
[9] = Cytotoxicity assay in HepG2 cells (MTT); conditions: human
[10] = target: hERG K+ channel (Homo sapiens, UniProt Q12809); assay: Inhibition of the hERG K+ channel, electrophysiology
hERG K+ channel, sequence (Q12809 whole entry): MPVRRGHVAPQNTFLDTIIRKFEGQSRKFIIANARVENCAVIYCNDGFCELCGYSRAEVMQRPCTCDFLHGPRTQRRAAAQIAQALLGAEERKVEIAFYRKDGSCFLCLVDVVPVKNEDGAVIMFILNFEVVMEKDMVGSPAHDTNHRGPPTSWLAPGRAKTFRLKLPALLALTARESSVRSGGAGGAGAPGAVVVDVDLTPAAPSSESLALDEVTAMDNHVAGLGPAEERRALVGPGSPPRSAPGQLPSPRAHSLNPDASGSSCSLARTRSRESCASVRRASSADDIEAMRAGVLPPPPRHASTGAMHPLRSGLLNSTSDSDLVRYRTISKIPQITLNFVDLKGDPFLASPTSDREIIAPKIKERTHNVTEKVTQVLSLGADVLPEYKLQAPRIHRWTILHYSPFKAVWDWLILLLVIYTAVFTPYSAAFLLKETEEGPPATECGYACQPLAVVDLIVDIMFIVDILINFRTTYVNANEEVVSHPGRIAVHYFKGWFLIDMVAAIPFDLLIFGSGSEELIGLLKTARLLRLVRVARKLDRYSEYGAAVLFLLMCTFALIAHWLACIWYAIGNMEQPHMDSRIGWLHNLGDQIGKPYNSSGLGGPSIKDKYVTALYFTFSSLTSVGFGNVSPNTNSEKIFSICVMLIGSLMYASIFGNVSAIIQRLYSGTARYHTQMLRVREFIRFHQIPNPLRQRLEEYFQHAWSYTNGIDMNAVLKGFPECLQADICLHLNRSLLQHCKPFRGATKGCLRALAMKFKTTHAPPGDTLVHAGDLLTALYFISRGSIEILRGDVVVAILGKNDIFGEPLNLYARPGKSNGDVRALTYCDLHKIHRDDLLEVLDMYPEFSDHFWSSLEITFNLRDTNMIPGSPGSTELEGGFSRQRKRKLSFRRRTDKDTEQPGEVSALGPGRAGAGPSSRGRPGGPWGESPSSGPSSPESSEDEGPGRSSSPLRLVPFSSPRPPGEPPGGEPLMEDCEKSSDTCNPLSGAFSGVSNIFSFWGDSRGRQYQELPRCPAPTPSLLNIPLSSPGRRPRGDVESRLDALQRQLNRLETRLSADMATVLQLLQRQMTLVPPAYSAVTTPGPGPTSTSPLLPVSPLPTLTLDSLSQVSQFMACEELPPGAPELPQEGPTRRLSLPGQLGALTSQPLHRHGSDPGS

[11] = test system: M. tuberculosis H37Rv; assay: In vivo efficacy in acute TB infection model in Balb/c mice; conditions: for log10 CFU/lung: oral, three weeks, INH 25 mg/kg; for Δlog10 CFU: in vivo
[12] = supplementary CSV, same values as Tables 1-3, read-out: Minimal inhibit concentration
[13] = against M. tuberculosis H37Rv, Tables 1-3, read-out: MIC
[14] = first column (batch with 25a; untreated 6.44), 25a 100 mg/kg

Compound	MIC [2, 12]	IC50 [3]	log10 CFU/macrophages [4]	IC50 DprE1 [5]	melting point	half-life at 1 µM [6]	remaining at 0.5 h, 1 µM [6]	half-life at 1 µM [7]	remaining at 0.5 h, 1 µM [7]	IC50 at 48 h [9]	IC50 [10]	MIC [2, 13]	SI [3]	further results
C[C@H]1COC2(CCN(c3nc(=O)c4cc(C(F)(F)F)cc([N+](=O)[O-])c4s3)CC2)O1 [BTZ043]	–	–	–	–	–	–	–	–	–	–	–	–	–	MICs [1]: < 0.016 µg/mL
CCOC(=O)NC(=O)c1ccsc1NC(=O)c1ccc(C(=O)N2CCCCC2)c(F)c1 [Compound 24f, Ethyl (2-(3-Fluoro-4-(piperidine-1-carbonyl)benzamido)thiophene-3-carbonyl)carbamate]	< 0.016 µg/mL	> 64 µg/mL	4.18 ± 0.04 log10 CFU and 4.41 ± 0.10 log10 CFU	0.2 ± 0.04 µg/mL (≈ 0.447 µM)	186 to 187 °C	43.7 min	62.1%	38.1 min	58%	> 64 µg/mL	> 30 µM	–	–	MIC H37Rv ([2]; H37Rv, Table 4): 0.020 µg/mL (≈ 0.0447 µM); MIC ([2]; against M. tuberculosis H37Rv, Tables 1-3): < 0.016 µg/mL; MIC ([2]; Table 4, read-out: MIC H37Rv): 0.02 to 0.12 µg/mL (≈ 0.0447 to 0.268 µM); AUC(0-inf) at 24 h ([8]; iv, 5 mg/kg): 184 ng·h/mL; AUC(0-t) at 24 h ([8]; iv, 5 mg/kg): 183 ng·h/mL; Cmax at 24 h ([8]; iv, 5 mg/kg): 1300 ng/mL; MRT inf at 24 h ([8]; iv, 5 mg/kg): 7.8 min; clearance at 24 h ([8]; iv, 5 mg/kg): 479 mL/min/kg; half-life at 24 h ([8]; iv, 5 mg/kg): 7.8 min; AUC(0-inf) at 24 h ([8]; po, 50 mg/kg): 57.9 ng·h/mL; AUC(0-t) at 24 h ([8]; po, 50 mg/kg): 41.9 ng·h/mL; Cmax at 24 h ([8]; po, 50 mg/kg): 25.4 ng/mL; MRT inf at 24 h ([8]; po, 50 mg/kg): 126 min; Tmax at 24 h ([8]; po, 50 mg/kg): 60 min; bioavailability at 24 h ([8]; po, 50 mg/kg): 2.3%; half-life at 24 h ([8]; po, 50 mg/kg): 102 min
CCOC(=O)NC(=O)c1ccsc1NC(=O)c1ccc(C(=O)N2CCCCC2)cc1 [Compound 23j, Ethyl (2-(4-(Piperidine-1-carbonyl)benzamido)thiophene-3-carbonyl)carbamate]	0.02 µg/mL (≈ 0.0466 µM)	> 64 µg/mL	4.45 ± 0.03 log10 CFU and 4.54 ± 0.01 log10 CFU	0.3 ± 0.1 µg/mL (≈ 0.698 µM)	–	56.4 min	69.1%	50.8 min	66.4%	> 64 µg/mL	23.7 µM	0.02 µg/mL (≈ 0.0466 µM)	–	Δlog10 CFU [4]: 1.07 log10 CFU and 0.98 log10 CFU
COC(=O)NC(=O)c1ccsc1NC(=O)c1ccc(C(=O)N2CCCCC2)cc1 [Compound 25a, Methyl (2-(4-(Piperidine-1-carbonyl)benzamido)thiophene-3-carbonyl)carbamate]	0.19 µg/mL (≈ 0.457 µM)	> 64 µg/mL	4.77 ± 0.10 log10 CFU and 5.06 ± 0.03 log10 CFU	0.9 ± 0.2 µg/mL (≈ 2.17 µM)	–	27.1 min	46.5%	20.3 min	35.9%	> 64 µg/mL	22.6 µM	0.19 µg/mL (≈ 0.457 µM)	–	Δlog10 CFU [4]: 0.75 log10 CFU and 0.46 log10 CFU; log10 CFU/lung [11, 14]: 4.42 ± 0.45 log10 CFU; Δlog10 CFU [11]: 2.02 log10 CFU; AUC(0-inf) at 24 h ([8]; iv, 5 mg/kg): 833 ng·h/mL; AUC(0-t) at 24 h ([8]; iv, 5 mg/kg): 830 ng·h/mL; Cmax at 24 h ([8]; iv, 5 mg/kg): 4560 ng/mL; MRT inf at 24 h ([8]; iv, 5 mg/kg): 12 min; clearance at 24 h ([8]; iv, 5 mg/kg): 101 mL/min/kg; half-life at 24 h ([8]; iv, 5 mg/kg): 15.6 min; AUC(0-inf) at 24 h ([8]; po, 50 mg/kg): 657 ng·h/mL; AUC(0-t) at 24 h ([8]; po, 50 mg/kg): 651 ng·h/mL; Cmax at 24 h ([8]; po, 50 mg/kg): 486 ng/mL; MRT inf at 24 h ([8]; po, 50 mg/kg): 66 min; Tmax at 24 h ([8]; po, 50 mg/kg): 34.8 min; bioavailability at 24 h ([8]; po, 50 mg/kg): 7.9%; half-life at 24 h ([8]; po, 50 mg/kg): 51 min
CCOC(=O)NC(=O)c1ccsc1NC(=O)c1ccc(C(=O)N2CCC2)cc1 [Compound 23h, Ethyl (2-(4-(Azetidine-1-carbonyl)benzamido)thiophene-3-carbonyl)carbamate]	0.84 µg/mL (≈ 2.09 µM)	> 64 µg/mL	–	–	182 to 183 °C	–	–	–	–	–	–	0.84 µg/mL (≈ 2.09 µM)	>76	–
Cc1ccnc(NC(=O)c2ccsc2NC(=O)c2ccc(C(=O)N3CCCCC3)c(F)c2)n1 [Compound 25k, 2-(3-Fluoro-4-(piperidine-1-carbonyl)benzamido)-N-(4-methylpyrimidin-2-yl)thiophene-3-carboxamide]	0.47 µg/mL (≈ 1.01 µM)	> 64 µg/mL	–	–	148 to 150 °C	–	–	–	–	–	–	0.47 µg/mL (≈ 1.01 µM)	>136	–
NNC(=O)c1ccncc1 [INH, isoniazid, reference compound]	–	–	–	–	–	–	–	–	–	–	–	–	–	MIC ([2]; Table 4, read-out: MIC H37Rv): 0.019 µg/mL (≈ 0.139 µM); log10 CFU/lung [11, 14]: 1.76 ± 0.49 log10 CFU; Δlog10 CFU [11]: 4.68/5.17 log10 CFU; log10 CFU/lung ([11]; second column (another batch, with TCA1; untreated 7.10), TCA1 100 mg/kg): 1.93 ± 0.21 log10 CFU
CCOC(=O)NC(=O)c1ccsc1NC(=O)c1ccc(C(=O)N2CCCCC2)cc1Cl [Compound 24c, Ethyl (2-(2-Chloro-4-(piperidine-1-carbonyl)benzamido)thiophene-3-carbonyl)carbamate]	0.45 µg/mL (≈ 0.97 µM)	> 64 µg/mL	–	–	59 to 60 °C	–	–	–	–	–	–	0.45 µg/mL (≈ 0.97 µM)	>142	–
